# From article PMC9897788, “Design, synthesis and cytotoxic evaluation of novel bis-thiazole derivatives as preferential Pim1 kinase inhibitors with in vivo and in silico study” (Journal of Enzyme Inhibition and Medicinal Chemistry, 2023)
# pIC50: −log10 of the molar value.
# What was measured:
# [1] = test system: SK-MEL-5; assay: NCI 60 cell one-dose screening (SRB); assay type: cell-based; conditions: Homo sapiens; SK-MEL-5, Melanoma; single dose 10 µM, 48 h; read-out: Percentage of cellular growth inhibition
# How it was run: (§1)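 Growth percentage, referenced to time-zero and drug-free wells and measured by SRB absorbance (515 nm), was subtracted from 100 to give inhibition. Cells had been pre-grown 24 h, then incubated 48 h at 37 °C, 5% CO2 with test compound at 10 µM final.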
# [2] = test system: DU-145; assay: NCI 60 cell one-dose screening (SRB); assay type: cell-based; conditions: Homo sapiens; DU-145, Prostate Cancer; single dose 10 µM, 48 h; read-out: Percentage of cellular growth inhibition
# How it was run: as §1
# [3] = test system: MALME-3M; assay: NCI 60 cell one-dose screening (SRB); assay type: cell-based; conditions: Homo sapiens, Melanoma, single dose 10 µM, 48 h, read-out: Percentage of cellular growth inhibition
# How it was run: as §1
# [4] = test system: M14; assay: NCI 60 cell one-dose screening (SRB); assay type: cell-based; conditions: Homo sapiens; M14, Melanoma; single dose 10 µM, 48 h; read-out: Percentage of cellular growth inhibition
# How it was run: as §1
# [5] = test system: NCI/ADR-RES; assay: NCI 60 cell one-dose screening (SRB); assay type: cell-based; conditions: Homo sapiens, Ovarian Cancer, single dose 10 µM, 48 h, read-out: Percentage of cellular growth inhibition
# How it was run: as §1
# [6] = test system: LOX IMVI; assay: NCI 60 cell one-dose screening (SRB); assay type: cell-based; conditions: Homo sapiens, Melanoma, single dose 10 µM, 48 h, read-out: Percentage of cellular growth inhibition
# How it was run: as §1
# [7] = test system: OVCAR-5; assay: NCI 60 cell one-dose screening (SRB); assay type: cell-based; conditions: Homo sapiens; OVCAR-5, Ovarian Cancer; single dose 10 µM, 48 h; read-out: Percentage of cellular growth inhibition
# How it was run: as §1
# [8] = test system: ACHN; assay: NCI 60 cell one-dose screening (SRB); assay type: cell-based; conditions: Homo sapiens, Renal Cancer, single dose 10 µM, 48 h, read-out: Percentage of cellular growth inhibition
# How it was run: as §1
# [9] = test system: IGROV1; assay: NCI 60 cell one-dose screening (SRB); assay type: cell-based; conditions: Homo sapiens, IGROV-1; IGROV1, Ovarian Cancer; single dose 10 µM, 48 h; read-out: Percentage of cellular growth inhibition
# How it was run: as §1
# [10] = test system: COLO 205; assay: NCI 60 cell one-dose screening (SRB); assay type: cell-based; conditions: Homo sapiens; COLO 205, Colon Cancer; single dose 10 µM, 48 h; read-out: Percentage of cellular growth inhibition
# How it was run: as §1
# [11] = test system: NCI-H23; assay: NCI 60 cell one-dose screening (SRB); assay type: cell-based; conditions: Homo sapiens; NCI-H23, Non-Small Cell Lung Cancer; single dose 10 µM, 48 h; read-out: Percentage of cellular growth inhibition
# How it was run: as §1
# [12] = test system: SNB-19; assay: NCI 60 cell one-dose screening (SRB); assay type: cell-based; conditions: Homo sapiens; SNB-19, CNS Cancer; single dose 10 µM, 48 h; read-out: Percentage of cellular growth inhibition
# How it was run: as §1
# [13] = test system: SR; assay: NCI 60 cell one-dose screening (SRB); assay type: cell-based; conditions: Homo sapiens, Leukemia, single dose 10 µM, 48 h, read-out: Percentage of cellular growth inhibition
# How it was run: as §1
# [14] = test system: HOP-92; assay: NCI 60 cell one-dose screening (SRB); assay type: cell-based; conditions: Homo sapiens, HOP-92, 48 h, HOP-92, Non-Small Cell Lung Cancer, single dose 10 µM, read-out: Percentage of cellular growth inhibition
# How it was run: as §1
# [15] = test system: NCI-H522; assay: NCI 60 cell one-dose screening (SRB); assay type: cell-based; conditions: Homo sapiens; NCI-H522, Non-Small Cell Lung Cancer; single dose 10 µM, 48 h; read-out: Percentage of cellular growth inhibition
# How it was run: as §1
# [16] = test system: Breast T47D cancer cell line; assay: In vitro inhibition concentration of breast T47D cancer cell line; assay type: cell-based; conditions: Homo sapiens
# Procedure: Cells were seeded and treated with a range of inhibitors concentration 39–10,000 nM after 24 h relative to DMSO. […]
# [17] = test system: T-47D; assay: NCI 60 cell one-dose screening (SRB); assay type: cell-based; conditions: Homo sapiens, T47D, 48 h, Breast Cancer, single dose 10 µM, read-out: Percentage of cellular growth inhibition
# How it was run: as §1
# [18] = test system: OVCAR-3; assay: NCI 60 cell one-dose screening (SRB); assay type: cell-based; conditions: Homo sapiens; OVCAR-3, Ovarian Cancer; single dose 10 µM, 48 h; read-out: Percentage of cellular growth inhibition
# How it was run: as §1
# [19] = test system: SK-MEL-2; assay: NCI 60 cell one-dose screening (SRB); assay type: cell-based; conditions: Homo sapiens; SK-MEL-2, Melanoma; single dose 10 µM, 48 h; read-out: Percentage of cellular growth inhibition
# How it was run: as §1
SMILES,inhibition at 10 µM [1],inhibition at 10 µM [2],inhibition at 10 µM [3],inhibition at 10 µM [4],inhibition at 10 µM [5],inhibition at 10 µM [6],inhibition at 10 µM [7],inhibition at 10 µM [8],inhibition at 10 µM [9],inhibition at 10 µM [10],inhibition at 10 µM [11],inhibition at 10 µM [12],inhibition at 10 µM [13],inhibition at 10 µM [14],inhibition at 10 µM [15],pIC50 ([16]; 48 h),pIC50 ([16]; 96 h),melting point,inhibition at 10 µM [17],inhibition at 10 µM [18],other results
"CC(=O)c1sc(Nc2cccc(Nc3nc(C)c(C(C)=O)s3)c2)nc1C [3b, 1,1’-(2,2’-(1,3-Phenylenebis(azanediyl))bis(4-methylthiazole-5,2-diyl))diethanone]",44.2%,54.6%,30.2%,48.7%,44.4%,51.9%,16.5%,63.5%,73.6%,22.3%,36.8%,9.1%,61.5%,36.4%,53.8%,5.24,5.84,,,,
"CCOC(=O)c1sc(Nc2cccc(Nc3nc(C)c(C(=O)OCC)s3)c2)nc1C [3c, Diethyl 2,2’-(1,3-phenylenebis(azanediyl))bis(4-methylthiazole-5-carboxylate)]",55.1%,16.2%,15.2%,14%,33.1%,25.5%,8%,24.6%,23.4%,12.8%,41.6%,17.7%,36.1%,47.8%,26.7%,,,107 to 108 °C,63.9%,,
"c1ccc(-c2csc(Nc3cccc(Nc4nc(-c5ccccc5)cs4)c3)n2)cc1 [6a, N^1,N^3-bis(4-phenylthiazol-2-yl)benzene-1,3-diamine]",79%,41.1%,47.2%,52.2%,73.9%,,35.5%,63.8%,65.9%,16.5%,63.2%,42%,,56.3%,88.6%,5.18,5.75,92 to 94 °C,,46.8%,inhibition at 10 µM [19]: 35.1%
"NC(=S)Nc1cccc(NC(N)=S)c1 [compound 2, 1,1′-(1,3-phenylene)bis(thiourea)]",8.6%,-1.2%,15.7%,-25.1%,2.4%,,-3.6%,3.7%,2.5%,-36.7%,1.5%,11.7%,,-4.5%,2.8%,,,,13.2%,11.5%,inhibition at 10 µM [19]: -11.7%
"Clc1ccc(-c2csc(Nc3cccc(Nc4nc(-c5ccc(Cl)cc5)cs4)c3)n2)cc1 [6c, N^1,N^3-bis(4–(4-chlorophenyl)thiazol-2-yl)benzene-1,3-diamine]",2.9%,-1.8%,-22.4%,29.3%,4.6%,7.3%,9.6%,14.3%,9%,-7.3%,10.1%,11.5%,3.9%,59.5%,13.2%,4.56,5.73,100 to 101 °C,18.3%,,
"CCOc1ccc(/N=N/c2sc(Nc3cccc(Nc4nc(C)c(/N=N/c5ccc(OCC)cc5)s4)c3)nc2C)cc1 [5b, N^1,N^3-bis(5-((4-ethoxyphenyl)diazinyl)-4-methylthiazol-2-yl)benzene-1,3-diamine]",0.8%,-3.9%,-6.9%,-7%,1.5%,2.6%,9%,1.1%,9.7%,-5.1%,10.6%,11.5%,-15.5%,25.1%,12.9%,,,116 to 118 °C,17.1%,,
"Fc1ccc(-c2cs/c(=N\c3ccccc3)n2-c2cccc(-n3c(-c4ccc(F)cc4)cs/c3=N\c3ccccc3)c2)cc1 [8b, N,N’-(3,3’-(1,3-phenylene)bis(4–(4-fluorophenyl)thiazole-3(3H)-yl-2(3H)-ylidene))dianiline]",9.3%,17.1%,7.5%,0.4%,10.2%,23.9%,14%,2.3%,12.9%,-0.4%,,5.6%,36.1%,22%,41.6%,5.01,5.58,,51%,4.1%,inhibition at 10 µM [19]: 22.2%
"Cc1csc(Nc2cccc(Nc3nc(C)cs3)c2)n1 [3a, N^1,N^3-bis(4-methylthiazol-2-yl)benzene-1,3-diamine]",6.2%,10.2%,-18.3%,-7.3%,20.1%,25.5%,7.1%,20.7%,7.9%,-3.8%,21.2%,1%,17.3%,41.2%,39.3%,5.11,5.54,137 to 139 °C,36.8%,,
"Cc1nc(Nc2cccc(Nc3nc(C)c(N=Nc4ccccc4)s3)c2)sc1N=Nc1ccccc1 [5a, N^1,N^3-bis(4-methyl-5-(phenyldiazenyl)thiazol-2-yl)benzene-1,3-diamine]",8.5%,16.6%,-7.7%,-7.6%,10.2%,,19.8%,38.3%,52.2%,-4.9%,14.7%,42.6%,,-4%,30.7%,4.98,5.36,115 to 116 °C,48%,26%,inhibition at 10 µM [19]: -6.7%
"S=C(Nc1ccccc1)Nc1cccc(NC(=S)Nc2ccccc2)c1 [compound 7, 1,1′-(1,3-phenylene)bis(3-phenylthiourea)]",1.5%,-10.2%,10.8%,-19.6%,-9.3%,,-4.9%,-3.8%,-3.3%,-37.6%,-5.7%,3.4%,,-15.7%,-6.3%,,,,6.3%,-6.1%,inhibition at 10 µM [19]: -35.3%
